# System: LOX
# Test: Time-dependent inhibition with pre-incubation 0-240 min (Fig. 2d)
# Type: biochemical
# From the text: Data are presented as mean ± s.d. […] Data presented as mean ± s.d. […] Source data TEXT PRINTED IN THE PICTURE: (b) PXS-5505: Recombinant DAO IC50 (nM): >30,000; Recombinant SSAO/VAP1 IC50 (nM): >30,000; Recombinant MAO-A IC50 (nM): >30,000; Recombinant MAO-B IC50 (nM): >30,000 | (f) PXS-5505: Fibroblast LOX IC50 (nM): 4,930; Recombinant LOXL-1 IC50 (nM): 1,590; Recombinant LOXL-2 IC50 (nM): 570; Recombinant LOXL-3 IC50 (nM): 1,800; Recombinant LOXL-4 IC50 (nM): 190
# Similar to other fluoroallylamine-based amine oxidase inhibitors, the mode of inhibition is assumed to be a two-step mechanism (Fig. 2c), with PXS-5505 reacting with the unique LTQ cofactor found within the active site. The fluoroallylamine facilitates the formation of a covalent, irreversible bond. […] Furthermore, in jump dilution experiments, there is no significant recovery of activity following rapid dilution (LOXL1 (5 ± 5% recovery, n = 4), LOXL2 (7 ± 1.2% recovery, n = 3) and LOXL3 (11 ± 2% recovery, n = 3)).
smiles,measurement,setting,value
"Cl.Cl.NC/C=C(\F)CS(=O)(=O)c1cccc2cccnc12.O [PXS-5505, (Z)-3-fluoro-4-(quinolin-8-ylsulfonyl)but-2-en-1-amine dihydrochloride monohydrate]",LOX specific activity,"pre-incubation 0 min, log conc -4.52288",32.1036
same,LOX specific activity,"pre-incubation 0 min, log conc -5",64.3382
same,LOX specific activity,"pre-incubation 0 min, log conc -5.47756",84.6897
same,LOX specific activity,"pre-incubation 0 min, log conc -5.95468",91.8109
same,LOX specific activity,"pre-incubation 0 min, log conc -6.4318",92.4662
same,LOX specific activity,"pre-incubation 0 min, log conc -6.91009",98.7719
same,LOX specific activity,"pre-incubation 0 min, log conc -7.3851",96.7913
same,LOX specific activity,"pre-incubation 0 min, log conc -7.86328",102.005
same,LOX specific activity,"pre-incubation 0 min, log conc -8.34008",102.107
same,LOX specific activity,"pre-incubation 0 min, log conc -8.81816",98.6554
same,LOX specific activity,"pre-incubation 0 min, log conc -9.29414",106.228
same,LOX specific activity,"pre-incubation 0 min, log conc -9.77126",108.063
same,LOX specific activity,"pre-incubation 15 min, log conc -4.52288",9.177
same,LOX specific activity,"pre-incubation 15 min, log conc -5",32.3488
same,LOX specific activity,"pre-incubation 15 min, log conc -5.47756",65.4986
same,LOX specific activity,"pre-incubation 15 min, log conc -5.95468",81.8309
same,LOX specific activity,"pre-incubation 15 min, log conc -6.4318",89.7677
same,LOX specific activity,"pre-incubation 15 min, log conc -6.91009",93.4569
same,LOX specific activity,"pre-incubation 15 min, log conc -7.3851",96.3684
same,LOX specific activity,"pre-incubation 15 min, log conc -7.86328",90.7581
same,LOX specific activity,"pre-incubation 15 min, log conc -8.34008",96.0493
same,LOX specific activity,"pre-incubation 15 min, log conc -8.81816",95.7037
same,LOX specific activity,"pre-incubation 15 min, log conc -9.29414",99.1403
same,LOX specific activity,"pre-incubation 15 min, log conc -9.77126",98.9675
same,LOX specific activity,"pre-incubation 30 min, log conc -4.52288",2.6085
same,LOX specific activity,"pre-incubation 30 min, log conc -5",10.9871
same,LOX specific activity,"pre-incubation 30 min, log conc -5.47756",44.0429
same,LOX specific activity,"pre-incubation 30 min, log conc -5.95468",69.7571
same,LOX specific activity,"pre-incubation 30 min, log conc -6.4318",82.4602
same,LOX specific activity,"pre-incubation 30 min, log conc -6.91009",92.2531
same,LOX specific activity,"pre-incubation 30 min, log conc -7.3851",91.8445
same,LOX specific activity,"pre-incubation 30 min, log conc -7.86328",100.827
same,LOX specific activity,"pre-incubation 30 min, log conc -8.34008",94.7736
same,LOX specific activity,"pre-incubation 30 min, log conc -8.81816",95.6095
same,LOX specific activity,"pre-incubation 30 min, log conc -9.29414",101.078
same,LOX specific activity,"pre-incubation 30 min, log conc -9.77126",104.925
same,LOX specific activity,"pre-incubation 60 min, log conc -4.52288",-1.9
same,LOX specific activity,"pre-incubation 60 min, log conc -5",1.453
same,LOX specific activity,"pre-incubation 60 min, log conc -5.47756",20.7125
same,LOX specific activity,"pre-incubation 60 min, log conc -5.95468",53.0465
same,LOX specific activity,"pre-incubation 60 min, log conc -6.4318",78.5482
same,LOX specific activity,"pre-incubation 60 min, log conc -6.91009",90.7227
same,LOX specific activity,"pre-incubation 60 min, log conc -7.3851",95.8188
same,LOX specific activity,"pre-incubation 60 min, log conc -7.86328",101.294
same,LOX specific activity,"pre-incubation 60 min, log conc -8.34008",102.525
same,LOX specific activity,"pre-incubation 60 min, log conc -8.81816",100.564
same,LOX specific activity,"pre-incubation 60 min, log conc -9.29414",101.737
same,LOX specific activity,"pre-incubation 60 min, log conc -9.77126",102.743
same,LOX specific activity,"pre-incubation 120 min, log conc -4.52288",2.378
same,LOX specific activity,"pre-incubation 120 min, log conc -5",0.7896
same,LOX specific activity,"pre-incubation 120 min, log conc -5.47756",6.366
same,LOX specific activity,"pre-incubation 120 min, log conc -5.95468",21.6941
same,LOX specific activity,"pre-incubation 120 min, log conc -6.4318",62.059
same,LOX specific activity,"pre-incubation 120 min, log conc -6.91009",92.1986
same,LOX specific activity,"pre-incubation 120 min, log conc -7.3851",91.1259
same,LOX specific activity,"pre-incubation 120 min, log conc -7.86328",98.8619
same,LOX specific activity,"pre-incubation 120 min, log conc -8.34008",100.244
same,LOX specific activity,"pre-incubation 120 min, log conc -8.81816",100.045
same,LOX specific activity,"pre-incubation 120 min, log conc -9.29414",96.9572
same,LOX specific activity,"pre-incubation 120 min, log conc -9.77126",100.753
same,LOX specific activity,"pre-incubation 240 min, log conc -4.52288",-3.18
same,LOX specific activity,"pre-incubation 240 min, log conc -5",0.3645
same,LOX specific activity,"pre-incubation 240 min, log conc -5.47756",8.283
same,LOX specific activity,"pre-incubation 240 min, log conc -5.95468",6.894
same,LOX specific activity,"pre-incubation 240 min, log conc -6.4318",35.306
same,LOX specific activity,"pre-incubation 240 min, log conc -6.91009",69.9646
same,LOX specific activity,"pre-incubation 240 min, log conc -7.3851",87.2279
same,LOX specific activity,"pre-incubation 240 min, log conc -7.86328",94.5493
same,LOX specific activity,"pre-incubation 240 min, log conc -8.34008",99.3255
same,LOX specific activity,"pre-incubation 240 min, log conc -8.81816",102.317
same,LOX specific activity,"pre-incubation 240 min, log conc -9.29414",102.769
same,LOX specific activity,"pre-incubation 240 min, log conc -9.77126",103.159
same,time-dependent inhibition of LOX specific activity,pre-incubation time 0–240 min,increased potency with increased pre-incubation time

# — publication PMC10518255, “A first-in-class pan-lysyl oxidase inhibitor impairs stromal remodeling and enhances gemcitabine response and survival in pancreatic cancer” (Nature Cancer, 2023)
